Data published in patent publication US4657861A, “S-tetrahydroprotoberberineoxidase, process for producing the same and use thereof” (priority 1984, dated 1987).
Where two headings read alike, the source gives them in different places. Each block holds one compound with its values, some of them ahead of it.

What was measured:
[1] = molecular target: T1, S-tetrahydroprotoberberineoxidase (Berberis wilsoniae, UniProt F1BVB6); assay: Enzymatic oxidation of R,S-substrates with S-tetrahydroprotoberberineoxidase preparation, photometric analysis; settings: 37° C.; for Fate of R-form under enzymatic oxidation: pH=8.9; for Conversion of S-form into oxidized product: pH=8.9, admission of air
[2] = molecular target: T1, S-tetrahydroprotoberberineoxidase; assay: Inhibition of S-tetrahydroprotoberberineoxidase; format: biochemical, Berberis wilsonae var. subcaulialata; parameters: S-tetrahydroprotoberberineoxidase can be obtained by extraction from plant materials; from tissue; host or cells: plant material (Berberis wilsoniae inferred)
[3] = molecular target: T1, S-tetrahydroprotoberberineoxidase; settings: pH 8.9
[4] = molecular target: T1, S-tetrahydroprotoberberineoxidase; assay: KM value of S-tetrahydroprotoberberineoxidase for substrate; format: biochemical, Berberis wilsonae var. subcaulialata; parameters: S-tetrahydroprotoberberineoxidase can be obtained by extraction from plant materials; from tissue; host or cells: plant material (Berberis wilsoniae inferred); settings: at 40° C. and pH 8.9
Description: KM value for R,S-corypalmine at 40° C. and pH 8.9, 1.3 μMoles

[5] = molecular target: T2, S-tetrahydroprotoberberineoxidase immobilized on calcium alginate (Berberis wilsoniae, UniProt F1BVB6); assay: Enzymatic oxidation with S-tetrahydroprotoberberineoxidase immobilized on calcium alginate, photometric analysis; format: biochemical, Berberis wilsonae var. subcaulialata; settings: immobilized enzyme, 30° C., 150 hours, pH=8.9, admission of air
T2 construct: S-tetrahydroprotoberberineoxidase can be obtained by extraction from plant materials; from tissue; host or cells: plant material (Berberis wilsoniae inferred)
T2 sequence (F1BVB6 25-530): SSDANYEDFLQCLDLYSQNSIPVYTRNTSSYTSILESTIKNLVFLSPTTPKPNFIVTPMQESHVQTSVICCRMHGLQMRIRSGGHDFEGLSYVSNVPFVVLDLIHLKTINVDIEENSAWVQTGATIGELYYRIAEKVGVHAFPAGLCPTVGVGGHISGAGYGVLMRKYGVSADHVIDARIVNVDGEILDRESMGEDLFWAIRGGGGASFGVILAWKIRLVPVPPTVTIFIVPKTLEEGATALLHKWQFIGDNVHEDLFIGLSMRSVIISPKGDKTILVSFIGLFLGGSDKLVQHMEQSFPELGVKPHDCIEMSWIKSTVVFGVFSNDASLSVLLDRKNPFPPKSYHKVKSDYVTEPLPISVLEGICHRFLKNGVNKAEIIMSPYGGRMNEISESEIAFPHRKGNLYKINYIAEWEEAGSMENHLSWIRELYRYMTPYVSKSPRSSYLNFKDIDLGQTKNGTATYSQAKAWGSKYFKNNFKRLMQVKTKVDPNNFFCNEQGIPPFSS

Compound: COc1ccc2c(c1OC)CN1CCc3cc4c(cc3[C@H]1C2)OCO4 [R-canadine]
- Fate of R-form under enzymatic oxidation ([1]; after 2 hours): remained unchanged

Compound: COc1ccc(C[C@H]2NCCc3cc(OC)c(O)cc32)cc1O [R-norreticuline]
- Fate of R-form under enzymatic oxidation ([1]; after 16 hours): remained unchanged

Compound: COc1ccc2c(c1OC)CN1CCc3cc4c(cc3[C@@H]1C2)OCO4 [S-canadine]
- Conversion of S-form into oxidized product ([1]; after 2 hours): 100%

Compound: CC(=O)CC(C)=O [acetylacetone]
- Inhibition of the enzyme in the presence of the substance [2]: Complete and reversible inhibition

Compound: O=c1c(O)c(-c2ccc(O)cc2O)oc2cc(O)cc(O)c12 [morin]
- Inhibition of the enzyme in the presence of the substance [2]: Complete and reversible inhibition

Compound: COc1ccc(C[C@@H]2NCCc3cc(OC)c(O)cc32)cc1O [S-norreticuline]
- Conversion to 1,2-dehydronorreticuline [5]: complete conversion
- Conversion of S-form into oxidized product ([1]; after 16 hours): 100%

Second part, the compound after the results:

- Fate of R-form under enzymatic oxidation ([1]; after 2 hours): remained unchanged
Compound: COc1cc2c(cc1O)CCN1Cc3c(ccc(OC)c3OC)C[C@H]21 [R-corypalmine]

- Fate of R-form under enzymatic oxidation ([1]; after 16 hours): remained unchanged
Compound: COc1ccc2c(c1)CCN[C@@H]2Cc1cc(O)cc(O)c1 [R-form]

- Conversion of S-form into oxidized product ([3]; 16 h): 100%
Compound: COc1ccc2c(c1)CCN[C@H]2Cc1cc(O)cc(O)c1 [S-[1-(3',5'-dihydroxy-benzyl)-6-methoxy-1,2,3,4-tetrahydroisoquinoline]]

- Km [4]: 1.3 µM
Compound: COc1cc2c(cc1O)CCN1Cc3c(ccc(OC)c3OC)CC21 (racemic) [R,S-corypalmine]

- Conversion of S-form into oxidized product ([3]; 2 h): 100%
Compound: COc1cc2c(cc1O)CCN1Cc3c(ccc(OC)c3OC)C[C@@H]21 [S-corypalmine]
